According to PMC5556071, “ATR inhibition facilitates targeting of leukemia dependence on convergent nucleotide biosynthetic pathways” (Nature Communications, 2017):
Several values for one entry are separate records, joined by “and”; a condition that tells them apart may be missing. Identical values can stand only once.

Tested on: CEM cells
Test: Quantitative global proteomics (nLC-MS/MS), cells 12 h after release from G1 arrest
Type: cell-based, human
Set-up: key to RNR Level / dCK Level: ↓: partial decrease/inhibition; ↓↓↓: nearly complete inhibition; ↑: increase; ⟷: no change
Conditions: for Protein expression level normalized to control (NT): Eukaryotic translation initiation factor 6 (EIF6) / Protein expression level normalized to control (NT): Ribonucleoside-diphosphate reductase subunit M2 (RRM2) / Protein expression level normalized to control (NT): Translationally-controlled tumor protein (TPT1): 12 h following release from G1 arrest, independent analyses #1-#4; for RNR Level / dCK Level: summary Fig. 2g, CEM cells
Procedure: To investigate the molecular mechanisms underlying the metabolic consequences of ATR and dCK inhibition, global changes in protein expression were assessed in CEM cells using quantitative nano-LC tandem MS (nLC-MS/MS) (Fig. 2a). Chemical isotope coding following reductive dimethylation of peptide N-termini and lysine primary amines with differential stable isotopes (light:medium:heavy) was used to compare expression of experimental (VE-822, dCKi and VE-822 + dCKi) samples to controls (untreated, NT) by mixing equal proportions for triplex nLC-MS/MS quantitative analyses. The data set was filtered for proteins identified in all treatment groups in three independent experiments with coefficients of variation <20%. This yielded 1757 proteins with relative fold changes in treated vs. untreated cells ranging from 0.45 to 1.83. […] Protein levels of both RNR subunits, RRM1 and RRM2, as well as thymidylate synthase decreased by more than 20% following ATR inhibition (Fig. 2c). Changes in the expression of de novo enzymes observed in synchronous cells also occurred with ATR inhibition in asynchronous CEM cells (Fig. 2d and Supplementary Data 3), thereby arguing against the possibility of experimental artifacts introduced by Palbociclib-mediated cell cycle synchronization. The reduction in RRM2 levels induced by ATR inhibition was accompanied by an ~ 50% decrease in the phosphorylation of RRM2 on threonine 33 (pT33) (Fig. 2e), a phosphosite previously linked to the RRM2 stability. […]
Proteomic analyzes. CCRF-CEM cells were treated ± with a CDK4/6 inhibitor, PD-0332991 (Selleckchem) for 18 h to arrest at G1 phase. Cells were then washed twice with PBS and released in fresh media with treatment at a density of 1 x 10^6 cells/mL. Cells were collected at 12 h, washed twice with ice-cold PBS, and lysed by trituration using 1 mL per 5 x 10^7 cells of 0.5% sodium deoxycholate, 12 mM sodium lauryl sarcosine, and 50 mM triethylammonium bicarbonate, pH 8.0. Lysates were heated at 95 °C for 5 min and water bath sonicated at room temperature (RT) for 5 min. Bicinchoninic acid protein assay (Pierce) was performed to determine protein concentration. Disulfide bridges were reduced with 5 mM tris(2-carboxyethyl)phosphine (final concentration) at RT for 30 min with subsequent treatment with 10 mM iodoacetamide (final concentration) at RT in the dark for 30 min. Solutions were diluted 1:5 (v:v) with 50 mM triethylammonium bicarbonate. Proteins were cleaved with sequencing grade trypsin (Promega) at 1:100 (enzyme:protein) for 4 h at 37 °C followed by a second aliquot of trypsin 1:100 (enzyme:protein) overnight at 37 °C. Samples were acidified with 0.5% trifluoroacetic acid (final concentration), vortexed rapidly for 5 min, and centrifuged (16,000 x g for 5 min, RT) to pellet sodium deoxycholate. Supernatants were transferred to new microcentrifuge tubes and 20 µg of total peptide were desalted using C18 StageTips as previously described2. On-column dimethyl labeling using C18 StageTips was performed as previously described3. Briefly, StageTips were equilibrated with 20 μL of 250 mM 2-(N-morpholino)ethanesulfonic acid (MES) pH 5.5. Tryptic peptides were dimethyl labeled using 60 mM sodium cyanoborohydride, 0.4% formaldehyde, and 250 mM MES pH 5.5 for 10 min. Dimethyl labeled peptides were eluted from StageTips using 20 μL of 80% acetonitrile with 0.1% trifluoroacetic acid and lyophilized to dryness. Due to the nature of comparing 4 sample groups and being limited to 3 channels for stable isotope reductive amination labeling, two independent multiplexed experiments were run with each

Row | Structure (SMILES) | Protein expression level normalized to control (NT): Eukaryotic translation initiation factor 6 (EIF6) (listed as DI-82) | Protein expression level normalized to control (NT): Ribonucleoside-diphosphate reductase subunit M2 (RRM2) (listed as DI-82) | Protein expression level normalized to control (NT): Translationally-controlled tumor protein (TPT1) (listed as DI-82) | RNR Level | dCK Level | Protein expression level normalized to control (NT): Eukaryotic translation initiation factor 6 (EIF6) | Protein expression level normalized to control (NT): Ribonucleoside-diphosphate reductase subunit M2 (RRM2) | Protein expression level normalized to control (NT): Translationally-controlled tumor protein (TPT1) | decrease of RRM1 protein level (following ATR inhibition, 12 h) [%] | decrease of RRM2 protein level (following ATR inhibition, 12 h) [%] | decrease of thymidylate synthase protein level (following ATR inhibition, 12 h) [%]
1 | COc1ccc(-c2nc([C@@H](C)Sc3nc(N)cc(N)n3)c(C)s2)cc1OCCNS(C)(=O)=O [dCKi] | 1.00 and 0.98 and 0.95 and 0.99 | 1.17 and 0.99 and 1.08 and 1.15 | 0.99 and 0.98 and 0.95 | ⟷ | ⟷ |  |  |  |  |  | 
2 | CNCc1ccc(-c2cc(-c3nc(-c4ccc(S(=O)(=O)C(C)C)cc4)cnc3N)on2)cc1 [VE-822] |  |  |  | ↓ | ⟷ | 1.09 and 1.10 and 1.08 | 0.57 and 0.45 and 0.53 | 0.80 and 0.79 and 0.85 | > 20 | > 20 | > 20
